Results reported in BindingDB's records for doi:10.1016/j.ejmech.2016.02.023 (Rhône-Poulenc Rorer, 2016).
pIC50: −log10 of the molar value.

Assay: Antagonist activity at CRTH2 receptor in human eosinophils by ESC assay

| pIC50 | Structure (SMILES) |
| --- | --- |
| 7.92 | Cc1c(CC(=O)O)c2ccncn2c1Cc1ccccc1S(=O)(=O)c1ccccc1 |
| 8.22 | COc1ccc(S(=O)(=O)c2ccc(F)cc2)c(Cc2c(C)c(CC(=O)O)c3ccncn23)c1 |
